Test in all cases: relative viability (nuclei count vs DMSO), 5 days (fraction); higher = more cells survive
Compound in experiment [1]: CN[C@@H]1C[C@H]2O[C@@](C)([C@@H]1OC)n1c3ccccc3c3c4c(c5c6ccccc6n2c5c31)C(=O)NC4 [Staurosporine] + CC(=O)c1c(C)c2cnc(Nc3ccc(N4CCNCC4)cn3)nc2n(C2CCCC2)c1=O [Palbociclib] (partner 0.5 µM)
An outline of the steps:
(§1)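 Values are medians from duplicate plates. Each reflects relative viability, defined as the nuclei count of treated wells over that of vehicle wells. Lung cancer cell lines in 1536-well plates were pin-tool dosed one day after seeding with one drug alone or with a fixed anchor-drug dose plus five library-drug doses (not always all listed) in √10 steps, then fixed, stained and imaged at 4× after 5 days.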

Compound in experiment [2]: CN[C@@H]1C[C@H]2O[C@@](C)([C@@H]1OC)n1c3ccccc3c3c4c(c5c6ccccc6n2c5c31)C(=O)NC4 [Staurosporine] + COc1cc2c(Oc3ccc(NC(=O)C4(C(=O)Nc5ccc(F)cc5)CC4)cc3F)ccnc2cc1OCCCN1CCOCC1 [Foretinib] (partner 0.25 µM)
An outline of the steps:
as §1

Compound in the experiment “Sulindac + Olaparib”: CC1=C(CC(=O)O)c2cc(F)ccc2/C1=C\c1ccc([S+](C)[O-])cc1 [Sulindac] + O=C(c1cc(Cc2n[nH]c(=O)c3ccccc23)ccc1F)N1CCN(C(=O)C2CC2)CC1 [Olaparib] (partner 8 µM)
The method, boiled down: as §1

Compound in experiment [3]: O=c1[nH]cc(F)c(=O)[nH]1 [5-Fluorouracil] + Nc1ncn([C@H]2C[C@H](O)[C@@H](CO)O2)c(=O)n1 [Decitabine] (partner 2 µM)
An outline of the steps:
as §1

For the cell line 201T, the relative viability was 0.362 in experiment [1] (first compound 0.005 µM); 0.329 in experiment [1] (first compound 0.05 µM); 0.274 in experiment [1] (first compound 0.1581 µM); 0.285 in experiment [1] (first compound 0.5 µM); 0.881 in experiment [2] (first compound 0.005 µM); 0.896 in experiment [2] (first compound 0.01581 µM). Besides, the relative viability in experiment [2] (first compound 0.05 µM) was 0.518; in experiment [2] (first compound 0.1581 µM), 0.314; in experiment [2] (first compound 0.5 µM), 0.159; with Sulindac + Olaparib (first compound 0.08 µM), 0.896; in the experiment with Sulindac + Olaparib (first compound 0.253 µM) it was 0.825; in the experiment with Sulindac + Olaparib (first compound 0.8 µM), 0.846. Besides, the relative viability with Sulindac + Olaparib (first compound 2.53 µM) came out at 0.886; in the experiment with Sulindac + Olaparib (first compound 8 µM) it was 0.883; in experiment [3] (first compound 0.02 µM), 0.885; in experiment [3] (first compound 0.2 µM) it was 0.559; in experiment [3] (first compound 0.6325 µM), 0.3; in experiment [3] (first compound 2 µM), 0.257.
As for A549, the relative viability amounted to 0.675 in experiment [2] (first compound 0.005 µM); 0.268 in experiment [2] (first compound 0.01581 µM); 0.297 in experiment [2] (first compound 0.05 µM); 0.0276 in experiment [2] (first compound 0.1581 µM); 0.0246 in experiment [2] (first compound 0.5 µM); 0.468 in the experiment with Sulindac + Olaparib (first compound 0.08 µM). Moreover, the relative viability in the experiment with Sulindac + Olaparib (first compound 0.253 µM) amounted to 0.303; with Sulindac + Olaparib (first compound 2.53 µM) it was 0.331; with Sulindac + Olaparib (first compound 8 µM) it was 0.352; in experiment [3] (first compound 0.02 µM) it was 0.296; in experiment [3] (first compound 0.2 µM), 0.264; in experiment [3] (first compound 0.6325 µM), 0.252. Also, the relative viability in experiment [3] (first compound 2 µM) stood at 0.224.
As for A-427, the relative viability in experiment [1] (first compound 0.005 µM) was found to be 0.509; in experiment [1] (first compound 0.01581 µM), 0.425; in experiment [1] (first compound 0.05 µM), 0.346; in experiment [1] (first compound 0.1581 µM), 0.246; in experiment [1] (first compound 0.5 µM), 0.193; in experiment [2] (first compound 0.005 µM), 1.06. For the same cell line, the relative viability came out at 0.78 in experiment [2] (first compound 0.01581 µM); 0.282 in experiment [2] (first compound 0.05 µM); 0.198 in experiment [2] (first compound 0.1581 µM); 0.121 in experiment [2] (first compound 0.5 µM); 0.74 with Sulindac + Olaparib (first compound 0.08 µM); 0.787 with Sulindac + Olaparib (first compound 0.253 µM). Besides, the relative viability was determined as 0.8 with Sulindac + Olaparib (first compound 0.8 µM); 0.742 with Sulindac + Olaparib (first compound 2.53 µM); 0.821 with Sulindac + Olaparib (first compound 8 µM); 0.526 in experiment [3] (first compound 0.02 µM); 0.603 in experiment [3] (first compound 0.2 µM); 0.544 in experiment [3] (first compound 0.6325 µM). Moreover, in experiment [3] (first compound 2 µM), the relative viability turned out to be 0.479.
Consider ABC-1, for which the relative viability in experiment [1] (first compound 0.01581 µM) is 0.224; in experiment [1] (first compound 0.05 µM) it was 0.226; in experiment [1] (first compound 0.1581 µM), 0.258; in experiment [1] (first compound 0.5 µM), 0.193; in experiment [2] (first compound 0.005 µM), 0.394; in experiment [2] (first compound 0.01581 µM) it was 0.367. Moreover, the relative viability in experiment [2] (first compound 0.05 µM) was 0.249; in experiment [2] (first compound 0.1581 µM) it was 0.269; in experiment [2] (first compound 0.5 µM) it was 0.151; in the experiment with Sulindac + Olaparib (first compound 0.08 µM), 1.1; with Sulindac + Olaparib (first compound 0.253 µM), 0.611; with Sulindac + Olaparib (first compound 0.8 µM) it was 0.769. For the same cell line, the relative viability stood at 0.591 in the experiment with Sulindac + Olaparib (first compound 2.53 µM); 0.601 with Sulindac + Olaparib (first compound 8 µM); 1.25 in experiment [3] (first compound 0.02 µM); 0.959 in experiment [3] (first compound 0.2 µM); 0.944 in experiment [3] (first compound 0.6325 µM); 0.87 in experiment [3] (first compound 2 µM).
In the case of BEN, the relative viability in experiment [1] (first compound 0.005 µM) came out at 0.553; in experiment [1] (first compound 0.01581 µM), 0.478; in experiment [1] (first compound 0.05 µM), 0.397; in experiment [1] (first compound 0.1581 µM) it was 0.446; in experiment [1] (first compound 0.5 µM) it was 0.295; in experiment [2] (first compound 0.005 µM), 0.688. The relative viability in experiment [2] (first compound 0.01581 µM) came to 0.418; in experiment [2] (first compound 0.05 µM), 0.248; in experiment [2] (first compound 0.1581 µM), 0.221; in experiment [2] (first compound 0.5 µM) it was 0.187; in the experiment with Sulindac + Olaparib (first compound 0.08 µM) it was 0.964; with Sulindac + Olaparib (first compound 0.253 µM) it was 1.07. Moreover, the relative viability with Sulindac + Olaparib (first compound 0.8 µM) amounted to 1; in the experiment with Sulindac + Olaparib (first compound 2.53 µM), 1.05; with Sulindac + Olaparib (first compound 8 µM), 1.06; in experiment [3] (first compound 0.02 µM) it was 0.743; in experiment [3] (first compound 0.2 µM), 0.743; in experiment [3] (first compound 0.6325 µM), 0.746. For the same cell line, the relative viability in experiment [3] (first compound 2 µM) stood at 0.681.
As to CAL-12T, the relative viability in experiment [1] (first compound 0.005 µM) worked out at 0.196; in experiment [1] (first compound 0.01581 µM) it was 0.138; in experiment [1] (first compound 0.05 µM) it was 0.107; in experiment [1] (first compound 0.1581 µM), 0.142; in experiment [1] (first compound 0.5 µM), 0.122; in experiment [2] (first compound 0.005 µM) it was 0.523. Also, the relative viability in experiment [2] (first compound 0.01581 µM) was determined as 0.319; in experiment [2] (first compound 0.05 µM), 0.186; in experiment [2] (first compound 0.1581 µM), 0.168; in experiment [2] (first compound 0.5 µM), 0.121; with Sulindac + Olaparib (first compound 0.08 µM), 0.794; with Sulindac + Olaparib (first compound 0.253 µM), 0.727. Besides, the results for the relative viability in the experiment with Sulindac + Olaparib (first compound 0.8 µM), in the experiment with Sulindac + Olaparib (first compound 2.53 µM) and with Sulindac + Olaparib (first compound 8 µM) were 0.649, 0.664 and 0.769, respectively.
In the case of COR-L23, the relative viability was 0.218 in experiment [1] (first compound 0.005 µM); 0.109 in experiment [1] (first compound 0.01581 µM); 0.117 in experiment [1] (first compound 0.05 µM); 0.103 in experiment [1] (first compound 0.1581 µM); 0.0791 in experiment [1] (first compound 0.5 µM); 0.513 in experiment [2] (first compound 0.005 µM). Moreover, the relative viability in experiment [2] (first compound 0.01581 µM) worked out at 0.459; in experiment [2] (first compound 0.05 µM), 0.376; in experiment [2] (first compound 0.1581 µM), 0.119; in experiment [2] (first compound 0.5 µM), 0.0927; in the experiment with Sulindac + Olaparib (first compound 0.08 µM), 0.348; with Sulindac + Olaparib (first compound 0.253 µM), 0.449. Further, the relative viability in the experiment with Sulindac + Olaparib (first compound 0.8 µM) stood at 0.291; with Sulindac + Olaparib (first compound 2.53 µM) it was 0.323; with Sulindac + Olaparib (first compound 8 µM) it was 0.376; in experiment [3] (first compound 0.02 µM), 0.452; in experiment [3] (first compound 0.2 µM) it was 0.449; in experiment [3] (first compound 0.6325 µM) it was 0.412. Besides, the relative viability in experiment [3] (first compound 2 µM) was determined as 0.254.
As for COR-L 105, the relative viability amounted to 0.365 in experiment [1] (first compound 0.005 µM); 0.334 in experiment [1] (first compound 0.01581 µM); 0.313 in experiment [1] (first compound 0.05 µM); 0.282 in experiment [1] (first compound 0.1581 µM); 0.246 in experiment [1] (first compound 0.5 µM); 0.439 in experiment [2] (first compound 0.005 µM). Also, the relative viability turned out to be 0.389 in experiment [2] (first compound 0.01581 µM); 0.322 in experiment [2] (first compound 0.05 µM); 0.341 in experiment [2] (first compound 0.1581 µM); 0.231 in experiment [2] (first compound 0.5 µM); 0.645 with Sulindac + Olaparib (first compound 0.08 µM); 0.61 with Sulindac + Olaparib (first compound 0.253 µM). For the same cell line, the relative viability was found to be 0.692 with Sulindac + Olaparib (first compound 0.8 µM); 0.717 in the experiment with Sulindac + Olaparib (first compound 2.53 µM); 0.72 in the experiment with Sulindac + Olaparib (first compound 8 µM); 0.763 in experiment [3] (first compound 0.02 µM); 0.677 in experiment [3] (first compound 0.2 µM); 0.719 in experiment [3] (first compound 0.6325 µM). The relative viability in experiment [3] (first compound 2 µM) was found to be 0.438.
On to Calu-6, for which the relative viability turned out to be 0.75 in experiment [2] (first compound 0.005 µM); 0.456 in experiment [2] (first compound 0.01581 µM); 0.254 in experiment [2] (first compound 0.05 µM); 0.0642 in experiment [2] (first compound 0.1581 µM); 0.0391 in experiment [2] (first compound 0.5 µM); 0.618 with Sulindac + Olaparib (first compound 0.08 µM). Besides, the relative viability turned out to be 0.624 with Sulindac + Olaparib (first compound 0.253 µM), 0.449 with Sulindac + Olaparib (first compound 0.8 µM), 0.531 in the experiment with Sulindac + Olaparib (first compound 2.53 µM) and 0.711 with Sulindac + Olaparib (first compound 8 µM).
